The values below come from ChEMBL document CHEMBL4229350, “Antimicrobial activity and self-assembly behavior of antimicrobial peptide chensinin-1b with lipophilic alkyl tails” (Eur J Med Chem, 2018).

In brackets after ≈: the same amount, converted by molar mass. Activity calls are given as the source filed them. Bridge positions count the residues as written; N and C are the ends. Square brackets hold non-standard residues; d marks the D form. Peptide text beside a SMILES is read from it. * marks the point of attachment. X1 = CC[C@H](C)CCCCC(=O)*; Octanoyl = CCCCCCCC(=O)*; Dab = NCC[C@H](N)C(=O)O A value given as a limit tells only on which side of the number the result lay.

Series [1] relates to Lipid bilayer. In words: Induction of membrane permeabilization in calcein loaded LPS/PC/PG large unilamellar vesicles assessed as calcein leakage after 15 mins by fluorescence assay.
Series [2] has as its system Lipid bilayer. In words: Induction of membrane permeabilization in calcein loaded PG/CL/PE large unilamellar vesicles assessed as calcein leakage at 6 uM after 15 mins by fluorescence assay relative to control.
In series [3] the test system is Lipid bilayer. In words: Induction of membrane permeabilization in calcein loaded PG/CL large unilamellar vesicles assessed as calcein leakage at 6 uM after 15 mins by fluorescence assay relative to control.
In series [4] the test system is Lipid bilayer. In words: Induction of membrane permeabilization in calcein loaded PG/CL/PE large unilamellar vesicles assessed as calcein leakage at 3 uM after 10 mins by fluorescence assay relative to control.
In series [5] the test system is Lipid bilayer. In words: Induction of membrane permeabilization in calcein loaded PG/CL large unilamellar vesicles assessed as calcein leakage at 3 uM after 10 mins by fluorescence assay relative to control.
Series [6] has as its system Escherichia coli. In words: Antimicrobial activity against Escherichia coli AS 1.349 assessed as induction of outer membrane permeabilization by measuring NPN uptake by fluorescence assay. In kind it is functional, organism-based.
Series [7] relates to Staphylococcus aureus. In words: Antimicrobial activity against Staphylococcus aureus AS 1.72 assessed as induction of outer membrane permeabilization by measuring NPN uptake by fluorescence assay. In kind it is functional, organism-based.
Series [8] relates to Escherichia coli. In words: Antimicrobial activity against Escherichia coli AS 1.349 assessed as induction of bacterial cytoplasmic membrane depolarization at 2 times MIC after 5 mins by diSC3-5 dye-based fluorescence assay. The format is functional, organism-based.
The test system of series [9] is Staphylococcus aureus. In words: Antimicrobial activity against Staphylococcus aureus AS 1.72 assessed as induction of bacterial cytoplasmic membrane depolarization at 2 times MIC after 4 mins by diSC3-5 dye-based fluorescence assay. The format is functional, organism-based.
Series [10] can be described thus: Hemolytic activity against human erythrocytes after 1 hr. In kind it is ADME, cell-based, Erythrocyte.
Series [11] relates to MCF7. In words: Cytotoxicity against human MCF7 cells assessed as reduction in cell viability after 1 hr by MTT assay. In kind it is functional, cell-based. The following applies: MCF7, 1 h. (Formazan colour is commonly taken as a measure of viable cells.)
Series [12] concerns A-375. In words: Cytotoxicity against human A375 cells assessed as reduction in cell viability after 1 hr by MTT assay. The format is functional, cell-based. Conditions: A-375, 1 h.
The subject of series [13] is HeLa. In words: Cytotoxicity against human HeLa cells assessed as reduction in cell viability after 1 hr by MTT assay. The format is functional, cell-based.
Series [14] deals with Enterococcus faecalis. In words: Antimicrobial activity against Enterococcus faecalis CGMCC 1.595 after 18 hrs by micro dilution method. In kind it is functional. Conditions: CGMCC 1.595, 18 h.
The subject of series [15] is Enterococcus faecium. In words: Antimicrobial activity against Enterococcus faecium CGMCC 1.2334 after 18 hrs by micro dilution method. In kind it is functional. The following applies: CGMCC 1.2334, 18 h.
Series [16] relates to Lactococcus lactis. In words: Antimicrobial activity against Streptococcus lactis AS 1.1690 after 18 hrs by micro dilution method. The format is functional. Conditions: AS 1.1690, 18 h.
In series [17] the test system is Bacillus cereus. In words: Antimicrobial activity against Bacillus cereus AS 1.126 after 18 hrs by micro dilution method. In kind it is functional. Conditions: AS 1.126, 18 h.
The test system of series [18] is Staphylococcus aureus. In words: Antimicrobial activity against Staphylococcus aureus AS 1.72 after 18 hrs by micro dilution method. In kind it is functional. The following applies: AS 1.72, 18 h.
Series [19] has as its system Pseudomonas aeruginosa. In words: Antimicrobial activity against Pseudomonas aeruginosa CGMCC 1.860 after 18 hrs by micro dilution method. In kind it is functional. The following applies: CGMCC 1.860, 18 h.
The subject of series [20] is Escherichia coli. In words: Antimicrobial activity against Escherichia coli AS 1.349 after 18 hrs by micro dilution method. In kind it is functional. The following applies: AS 1.349, 18 h.
In series [21] the test system is Lipid bilayer. In words: Induction of membrane permeabilization in calcein loaded LPS/PC/PG large unilamellar vesicles assessed as calcein leakage at 50 uM after 15 mins by fluorescence assay relative to control.
Series [22] has as its system Lipid bilayer. In words: Induction of membrane permeabilization in calcein loaded PC/cholesterol large unilamellar vesicles assessed as calcein leakage at 50 uM after 10 mins by fluorescence assay relative to control.
Series [23] concerns Lipid bilayer. In words: Induction of membrane permeabilization in PC/cholesterol large unilamellar vesicles assessed as blue shift by Tryptophan fluorescence spectroscopy.
Series [24] deals with Lipid bilayer. In words: Induction of membrane permeabilization in PG/CL/PE large unilamellar vesicles assessed as blue shift at compound to lipid ratio of 10 by Tryptophan fluorescence spectroscopy.
Series [25] concerns Lipid bilayer. In words: Induction of membrane permeabilization in PG/CL large unilamellar vesicles assessed as blue shift at compound to lipid ratio of 60 by Tryptophan fluorescence spectroscopy.
Series [26] deals with U-937. In words: Antiinflammatory activity in human U937 cells assessed as inhibition of LPS-induced TNF-alpha production after 24 hrs by ELISA. In kind it is functional, cell-based. Background: In an ELISA, binding on a coated surface is turned into a signal by an enzyme label.
The test system of series [27] is U-937. In words: Antiinflammatory activity in human U937 cells assessed as inhibition of LPS-induced IL-6 production after 24 hrs by ELISA. In kind it is functional, cell-based.
For series [28], the system named is U-937. In words: Antiinflammatory activity in human U937 cells assessed as inhibition of LPS-induced TNF-alpha production at 12.6 uM after 24 hrs by ELISA relative to control. The format is functional. The following applies: U-937, 24 h.
Series [29] relates to U-937. In words: Antiinflammatory activity in human U937 cells assessed as inhibition of LPS-induced TNF-alpha production at 6.25 uM after 24 hrs by ELISA relative to control. The format is functional. Conditions: U-937, 24 h.
For series [30], the system named is U-937. In words: Antiinflammatory activity in human U937 cells assessed as inhibition of LPS-induced TNF-alpha production at 3.13 uM after 24 hrs by ELISA relative to control. In kind it is functional. Conditions: U-937, 24 h.
For series [31], the system named is U-937. In words: Antiinflammatory activity in human U937 cells assessed as inhibition of LPS-induced IL-6 production at 12.6 uM after 24 hrs by ELISA relative to control. In kind it is functional. Conditions: U-937, 24 h.
Series [32] deals with U-937. In words: Antiinflammatory activity in human U937 cells assessed as inhibition of LPS-induced IL-6 production at 6.25 uM after 24 hrs by ELISA relative to control. In kind it is functional. The following applies: U-937, 24 h.
Series [33] relates to U-937. In words: Antiinflammatory activity in human U937 cells assessed as inhibition of LPS-induced IL-6 production at 3.13 uM after 24 hrs by ELISA relative to control. In kind it is functional. The following applies: U-937, 24 h.
Series [34] is described as follows: Cytotoxicity against human U937 cells assessed as cell viability at 3.13 to 12.6 uM after 1 hr by MTT assay relative to control. The following applies: read-out: Activity. The format is cell-based, U-937.
Series [35] relates to Lipopolysaccharide (LPS). In words: Binding affinity to Escherichia coli 0111:B4 LPS assessed as equilibrium association constant by ITC method. For orientation: ITC needs no label: the signal is the heat of the interaction.
Series [36] has as its system Lipopolysaccharide (LPS). In words: Binding affinity to Escherichia coli 0111:B4 LPS by ITC method.
In series [37] the test system is Lipopolysaccharide (LPS). In words: Induction of LPS micelles disaggergation assessed as abundant particle size formation at 2 uM by DLS method.
For series [38], the system named is Lipopolysaccharide (LPS). In words: Induction of LPS micelles disaggergation assessed as small particle distribution at 2 uM by DLS method.
A short description of series [39]: Self-assembly property assessed as diameter of monodispersed micelles at 1 mg/ml at pH 7 by TEM analysis. In kind it is physicochemical.
Series [40] in a line: Self-assembly property assessed as diameter of monodispersed micelles at 1 mg/ml at pH 7 readjusted from pH 2 by TEM analysis. The format is physicochemical.
In series [41] the test system is U-937. In words: Antiinflammatory activity in human U937 cells assessed as inhibition of LPS-induced TNF-alpha production up to 40 microg/ml after 24 hrs by ELISA relative to control. The format is functional.
Series [42] deals with U-937. In words: Antiinflammatory activity in human U937 cells assessed as inhibition of LPS-induced IL-6 production up to 40 microg/ml after 24 hrs by ELISA relative to control. The format is functional.

As usually defined, the HC50 is the concentration giving 50% haemolysis. Read a high HC50 as less damage to red cells. One may read the IC50 as the concentration that gives 50% inhibition. By MIC is commonly meant the smallest concentration in the dilution series that meets the test's criterion for growth inhibition. Read a high MIC as weaker potency. In general, inhibition refers to the share of the control response that was lost under treatment. By Kd is commonly meant the concentration at which binding is half-saturated. Read a high Kd as weaker binding. For the compound `CCCCCCCC(=O)N[C@@H](CO)C(=O)N[C@@H](CCCCN)C(=O)N[C@H](C(=O)N[C@@H](Cc1c[nH]c2ccccc12)C(=O)N[C@@H](CCCNC(=N)N)C(=O)N[C@@H](Cc1cnc[nH]1)C(=O)N[C@@H](Cc1c[nH]c2ccccc12)C(=O)N[C@@H](CCCNC(=N)N)C(=O)N[C@@H](CCCNC(=N)N)C(=O)N[C@@H](Cc1ccccc1)C(=O)N[C@@H](Cc1c[nH]c2ccccc12)C(=O)N[C@@H](Cc1cnc[nH]1)C(=O)N[C@@H](CCCNC(=N)N)C(=O)N[C@@H](C)C(=O)N[C@@H](Cc1cnc[nH]1)C(=O)N[C@@H](CCCNC(=N)N)C(=O)N[C@@H](CCCCN)C(=O)N[C@@H](CC(C)C)C(=O)O)C(C)C` (Octanoyl-SKVWRHWRRFWHRAHRKL-OH), the Activity entry is “Dose-dependent effect” in series [1]; 92% in series [2]; 95% in series [3]; 66% in series [4]; 88% in series [5]; “Dose-dependent effect” in series [6]. The Activity entry in series [7] is “Dose-dependent effect”; in [21], 73%; in series [22] it was 20%; in series [24] it was 16 nm; in series [25], 24 nm; in series [37], 68 nm. Also, the values for the Activity in series [38], in series [39] and in series [40] were 400 nm, 80 nm and 7 nm, respectively. Moreover, the outcome in [8] and in series [9] was Active. The HC50 at 1 h in series [10] was greater than 500 µM. Further, the IC50 is 34.9 µM in [11], 51 µM in series [12] and 23.9 µM in series [13]. The minimum inhibitory concentration (MIC) is 1.56 µM (≈ 4.16 µg/mL) in series [14]; 1.56 µM (≈ 4.16 µg/mL) in series [15]; 1.56 µM (≈ 4.16 µg/mL) in [16]; 1.56 µM (≈ 4.16 µg/mL) in series [17]; 3.13 µM (≈ 8.35 µg/mL) in series [18]; 1.56 µM (≈ 4.16 µg/mL) in series [19]. This compound also gave a minimal inhibitory concentration (MIC) in series [20] of 3.13 µM (≈ 8.35 µg/mL). In addition, the outcome in series [23] was inactive. For the same compound, the inhibition result in series [26] and in [27] was “Dose-dependent effect” in each case. For the same compound, the inhibition at 12.6 µM in series [28] is 30%; in series [31], 24%. For the same compound, the figures for the inhibition at 6.25 µM in series [29] and in series [32] were 28% and 8%, respectively. Moreover, the results for the inhibition at 3.13 µM in [30] and in series [33] were 24% and 7%, respectively. Further, in [34], the viability at 1 h, up to 12.6 µM turned out to be 80%. In addition, the Ka in [35] came to 92.3 mM⁻¹. The same compound returned a Kd in [36] of 10.8 µM.
As for `CC[C@H](C)CCCCC(=O)N[C@@H](CCN)C(=O)N[C@H](C(=O)N[C@@H](CCN)C(=O)N[C@H]1CCNC(=O)[C@H]([C@@H](C)O)NC(=O)[C@H](CCN)NC(=O)[C@H](CCN)NC(=O)[C@H](CC(C)C)NC(=O)[C@@H](Cc2ccccc2)NC(=O)[C@H](CCN)NC1=O)[C@@H](C)O` (X1-[Dab]T[Dab][Dab][Dab][dF]L[Dab][Dab]T; lactam 4-C), the figures for the “inhibition (INH)” value in [41] and in [42] were 28% and 44%, respectively.
